This note sets out measurements from patent US20250265710A1, “NON-INVASIVE LASER SPECKLE IMAGING OF EXTRA-EMBRYONIC BLOOD VESSELS” (California Institute of Technology, priority 2024, published 2025).

The data set has as its system chick embryonic heart. As to the method:
These drugs were injected through the shell ventral to chick embryos at a developmental HH stage between HH16-19. The needle was guided to the embryos by the LLSCI system in live view mode.
In one example, before imaging, the eggs are injected with a drug by implementing a live view mode to ascertain the position of the embryo's heart and inserted a needle into the eggshell and the drug was injected into the area ventral to the embryo in a volume of 25-150 μL. This may result in a hole in the eggshell having a diameter between 0.6 and 0.8 mm. The hole can be covered by transparent tape to ensure the continued development of the embryo. After injection, the egg may be placed in an incubator (e.g., incubator 440 in FIG. 4) and imaged at regular intervals using a GUI (e.g., GUI 487 in FIG. 4). FIG. 22 is a schematic representation of a procedure for using LSCI imaging to determine the location of avian embryos for injection, according to an embodiment.
FIG. 23A depicts images of extraembryonic blood vessels of the control egg generated by the LSCI system 400 in FIG. 4 and images (frames) of a movie showing the dynamics of the blood vessels at time=3 minutes, time=34 minutes, time=73 minutes, time=129 minutes, time=250 minutes, and time=270 minutes. FIG. 23A also includes a time trace of BFI at these times. The time trace of the BFI is indicative of heart rate.
To quantify and characterize the effects of injecting a drug solution onto the CAM, an LSCI system was used to extract four features from the blood vessels images and blood flow graphs. FIG. 24 depicts examples of extraembryonic blood vessel images 2410, 2420 before and after feature extraction, and a heartbeat signal, according to embodiments. Blood vessel skeleton, branches, and the size of the CAM visualized. […] The LSCI system implemented the LSCI process 1400 shown in FIG. 14 to extract the features.
In various examples, the length of the blood vessels may be calculated as the total length of the vessel skeleton in the blood vessel image. In various examples, the number of branches may be determined by counting the branch points connecting the blood vessels and isolated vessel segments in the blood vessel images. In various examples, the vessel area may be obtained by calculating the area of the CAM in the blood vessel image. In various examples, the heart rate may be measured from the Fourier transform of the blood flow signal.
Tests were also performed on five eggs for each of the two Amlodipine concentrations. […] FIG. 25B includes a plot of heart rate 2530, a plot of length of blood vessels 2532, a plot of the number of branches 2540, and a plot of the size of the area vaculosa (AV) 2542 for test eggs injected with two different Amlodipine concentrations, according to embodiments.

Read-outs that look alike come from different tables or passages of the source. Bounds are passed on as bounds.

Turning to `COC(=O)C1=C(C)NC(C)=C(C(=O)OC)C1c1ccccc1[N+](=O)[O-]` [Nifedipine], for the setting “higher doses above 5 nmol”, the “time after injection without begin of return of heart rate to normal levels” value is on record as greater than 100 min and the “time to heart rate nadir” value is 20 min. Further, under “low doses around 3 nmol”, the “period over which heart rate dropped” value was found to be 40 min. For the same molecule, the “heart rate an hour after injection” value (one egg, 50 μL solution with 3 nmole) worked out at 100 bpm. For the same molecule, the “heart rate after injection” value (one egg, 50 μL solution with 3 nmole, dropped from 132 bpm pre-injection) is recorded as 94 bpm.

Turning to `CCOC(=O)C1=C(COCCN)NC(C)=C(C(=O)OC)C1c1ccccc1Cl` (centres unmarked) [Amlodipine], under “higher doses >60 nmol”, the embryo viability result is given as “embryo died at the time of injection, or its later development was heavily compromised” and the “time to heart rate nadir” value is 20 min. Further, under “lowest dose tested (<50 nmol)”, the “embryo development when incubated 7 days after the experiment” value was “developed normally”.
